Patent publication US12065404B2, “C4-carboxylic acid-substituted tryptamine derivatives and methods of using” (priority 2022, dated 2024)
Several values for one entry are separate records, joined by “and”; a condition that tells them apart may be missing. Identical values can stand only once. Entries after “also recorded” stand apart in the source; their conditions may differ.

Legend:
5-HT1A receptor = molecular target: T1, 5-HT1A receptor (Homo sapiens, UniProt P08908); assay: cAMP-Glo assay of 5-HT1A receptor modulation, +5-HT1A (CHO-K1/5-HT1A/Ga15) vs -5-HT1A (CHO-K1/Ga15) cells; type: cell-based; design: dose or concentration left out as unconfirmed; conditions: +5-HT1A vs -5-HT1A cell cultures stimulated with forskolin, increasing ligand concentrations
T1 construct: host or cells: CHO-K1 (co-expressing Ga15)
T1 sequence (P08908 1-422): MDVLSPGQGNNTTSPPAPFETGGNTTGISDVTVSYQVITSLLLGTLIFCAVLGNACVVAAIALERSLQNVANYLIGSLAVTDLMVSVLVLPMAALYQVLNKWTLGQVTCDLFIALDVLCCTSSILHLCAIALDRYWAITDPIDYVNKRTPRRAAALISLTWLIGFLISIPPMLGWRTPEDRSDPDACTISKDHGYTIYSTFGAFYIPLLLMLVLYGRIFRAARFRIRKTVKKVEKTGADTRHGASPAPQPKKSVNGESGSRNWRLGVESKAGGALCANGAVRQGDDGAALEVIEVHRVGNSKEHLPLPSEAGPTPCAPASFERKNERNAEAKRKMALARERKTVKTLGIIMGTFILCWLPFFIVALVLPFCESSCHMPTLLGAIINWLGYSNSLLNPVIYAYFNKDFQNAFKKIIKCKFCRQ

[1] = molecular target: T2, neuronal 5-HT2A receptor (5-HT2AR) (Mus musculus, UniProt P35363); assay: Drug-induced Head Twitch Response (HTR) in mice; type: in vivo, C57BL/6-Elite mice; conditions: 1 mg/kg i.p., 15-to-30-minute window post-drug, relative to vehicle-treated control mice
T2 construct: HTR was measured in mice treated with a control and test compounds; tissue Charles River; host or cells: live C57BL/6-Elite mice (neuronal receptor)

[2] = Mouse pharmacokinetic (PK) study, parent compound and psilocin metabolite in plasma; type: in vivo, C57Bl/6 mice; conditions: for F(%) / F(%), M37 considered as an outlier: AUC0-tlast used for p.o. group; for F(%): value might be under-estimated; for F(%), M37 considered as an outlier: i.v. animal M37 considered an outlier
Source text: Briefly, the procedure was as follows. […] 19, 2022.

[3] = 1 mg/kg i.v. C(I), 6 h, individual animals
[4] = 1 mg/kg i.v. C(I), 8 h, individual animals
[5] = 1 mg/kg oral C(I), 8 h, individual animals
[6] = 1 mg/kg oral C(I), 24 h, individual animals
[7] = 1 mg/kg oral, individual animals
[8] = 3 mg/kg oral C(I), 24 h, individual animals
[9] = 3 mg/kg oral, individual animals
[10] = 10 mg/kg oral C(I), 24 h, individual animals

T2 sequence (P35363 whole entry): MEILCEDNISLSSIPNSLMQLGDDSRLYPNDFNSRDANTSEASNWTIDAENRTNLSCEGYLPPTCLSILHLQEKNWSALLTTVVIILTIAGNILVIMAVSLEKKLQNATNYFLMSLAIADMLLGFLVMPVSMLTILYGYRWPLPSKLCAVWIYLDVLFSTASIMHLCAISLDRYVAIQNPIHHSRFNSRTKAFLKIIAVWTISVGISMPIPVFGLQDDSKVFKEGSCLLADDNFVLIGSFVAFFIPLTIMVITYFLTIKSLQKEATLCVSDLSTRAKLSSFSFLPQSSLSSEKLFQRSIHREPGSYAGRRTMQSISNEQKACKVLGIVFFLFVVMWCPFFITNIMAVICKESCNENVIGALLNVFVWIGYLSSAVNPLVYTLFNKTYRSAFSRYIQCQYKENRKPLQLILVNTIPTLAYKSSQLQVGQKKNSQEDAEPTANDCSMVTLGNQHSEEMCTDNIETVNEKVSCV

CN(C)CCc1c[nH]c2cccc(OC(=O)c3ccc(Br)cc3)c12 [C(I)]
5-HT1A receptor modulation (reduction of cAMP levels) (5-HT1A receptor): mild receptor modulation at higher ligand concentrations
Incidences of Head Twitch Response (HTR) [1]: Elevated incidences of HTR
Plasma concentration of C(I) ([2]; 1 mg/kg i.v. C(I), 5 min, individual animals): 2620 ng/mL and 118 ng/mL and 94.4 ng/mL
Plasma concentration of C(I) ([2]; 1 mg/kg i.v. C(I), 0.25 h, individual animals): 1250 ng/mL and 58.5 ng/mL and 48.2 ng/mL
Plasma concentration of C(I) ([2]; 1 mg/kg i.v. C(I), 0.5 h, individual animals): 348 ng/mL and 33.4 ng/mL and 30.4 ng/mL
Plasma concentration of C(I) ([2]; 1 mg/kg i.v. C(I), 1 h, individual animals): 128 ng/mL and 17.9 ng/mL and 13.8 ng/mL
Plasma concentration of C(I) ([2]; 1 mg/kg i.v. C(I), 2 h, individual animals): 52.8 ng/mL and 3.61 ng/mL and 3.40 ng/mL
Plasma concentration of C(I) ([2]; 1 mg/kg i.v. C(I), 4 h, individual animals): 8.88 ng/mL and 0.984 ng/mL and 0.509 ng/mL
Plasma concentration of C(I) [2, 3]: 4.65 ng/mL and 0.363 ng/mL and BLQ (BLQ denotes below the lower limit of quantitation (0.5 ng/mL).)
Plasma concentration of psilocin [2, 3]: BLQ (BLQ denotes below the lower limit of quantitation (0.2 ng/ml).)
Plasma concentration of C(I) [2, 4]: BLQ (BLQ denotes below the lower limit of quantitation (0.5 ng/mL).); also recorded: No Peak
Plasma concentration of psilocin [2, 4]: BLQ (BLQ denotes below the lower limit of quantitation (0.2 ng/ml).)
Plasma concentration of C(I) ([2]; 1 mg/kg oral C(I), 0.25 h, individual animals): 0.617 ng/mL and 0.410 ng/mL and 0.910 ng/mL
Plasma concentration of C(I) ([2]; 1 mg/kg oral C(I), 0.5 h, individual animals): 0.816 ng/mL and 0.535 ng/mL and 1.28 ng/mL
Plasma concentration of C(I) ([2]; 1 mg/kg oral C(I), 1 h, individual animals): BLQ (BLQ denotes below the lower limit of quantitation (0.5 ng/mL).) and 1.02 ng/mL
Plasma concentration of C(I) ([2]; 1 mg/kg oral C(I), 2 h, individual animals): BLQ (BLQ denotes below the lower limit of quantitation (0.5 ng/mL).) and 0.600 ng/mL
Plasma concentration of C(I) ([2]; 1 mg/kg oral C(I), 4 h, individual animals): BLQ (BLQ denotes below the lower limit of quantitation (0.5 ng/mL).)
Plasma concentration of C(I) ([2]; 1 mg/kg oral C(I), 6 h, individual animals): BLQ (BLQ denotes below the lower limit of quantitation (0.5 ng/mL).)
Plasma concentration of C(I) [2, 5]: BLQ (BLQ denotes below the lower limit of quantitation (0.5 ng/mL).)
Plasma concentration of psilocin [2, 5]: BLQ (BLQ denotes below the lower limit of quantitation (0.2 ng/ml).)
Plasma concentration of C(I) [2, 6]: No Peak and No (2×)
Plasma concentration of psilocin [2, 6]: No Peak; also recorded: BLQ (BLQ denotes below the lower limit of quantitation (0.2 ng/ml).)
F(%) [2, 7]: 0.554% and 0.0450% and 0.465%
F(%), M37 considered as an outlier [2, 7]: 3.59% and 0.291% and 3.01%
F(%), M37 considered as an outlier ([2]; 1 mg/kg oral, mean ± SD): 2.30 ± 1.76% and 2.30%
Plasma concentration of C(I) ([2]; 3 mg/kg oral C(I), 0.25 h, individual animals): 2.13 ng/mL and 2.34 ng/mL
Plasma concentration of C(I) ([2]; 3 mg/kg oral C(I), 0.5 h, individual animals): 2.16 ng/mL and 1.99 ng/mL
Plasma concentration of C(I) ([2]; 3 mg/kg oral C(I), 1 h, individual animals): 1.56 ng/mL and 1.33 ng/mL
Plasma concentration of C(I) ([2]; 3 mg/kg oral C(I), 2 h, individual animals): 0.705 ng/mL and 0.720 ng/mL
Plasma concentration of C(I) ([2]; 3 mg/kg oral C(I), 4 h, individual animals): 0.569 ng/mL and 0.873 ng/mL and 1.28 ng/mL
Plasma concentration of C(I) ([2]; 3 mg/kg oral C(I), 6 h, individual animals): 0.310 ng/mL and 0.250 ng/mL
Plasma concentration of C(I) ([2]; 3 mg/kg oral C(I), 8 h, individual animals): BLQ (BLQ denotes below the lower limit of quantitation (0.5 ng/mL).)
Plasma concentration of C(I) [2, 8]: No Peak
Plasma concentration of psilocin [2, 8]: No Peak
F(%) [2, 9]: 0.484% and 0.523%
F(%), M37 considered as an outlier [2, 9]: 3.02% and 3.13% and 3.39%
F(%), M37 considered as an outlier ([2]; 3 mg/kg oral, mean ± SD): 3.18 ± 0.189% and 3.18%
Plasma concentration of C(I) ([2]; 10 mg/kg oral C(I), 0.25 h, individual animals): 3.73 ng/mL and 6.07 ng/mL
Plasma concentration of C(I) ([2]; 10 mg/kg oral C(I), 0.5 h, individual animals): 7.10 ng/mL and 10.9 ng/mL
Plasma concentration of C(I) ([2]; 10 mg/kg oral C(I), 1 h, individual animals): 5.29 ng/mL and 7.46 ng/mL
Plasma concentration of C(I) ([2]; 10 mg/kg oral C(I), 2 h, individual animals): 2.51 ng/mL and 1.47 ng/mL and 3.80 ng/mL
Plasma concentration of C(I) ([2]; 10 mg/kg oral C(I), 4 h, individual animals): 2.06 ng/mL and 3.01 ng/mL
Plasma concentration of C(I) ([2]; 10 mg/kg oral C(I), 6 h, individual animals): 1.18 ng/mL and 0.661 ng/mL
Plasma concentration of C(I) ([2]; 10 mg/kg oral C(I), 8 h, individual animals): 0.253 ng/mL and 1.10 ng/mL and 0.283 ng/mL
Plasma concentration of C(I) [2, 10]: No (2×) and No Peak
Plasma concentration of psilocin [2, 10]: BLQ (BLQ denotes below the lower limit of quantitation (0.2 ng/ml).)
F(%), M37 considered as an outlier ([2]; 10 mg/kg oral, individual animals): 2.71% and 2.90% and 4.06%
